In patent US4551445A, “Derivatives of arginine vasopressin antagonists” (The Medical College of Ohio, priority 1983, dated 1985):
Starred links: 1 amine or outer side, 2 acyl side, 3 side chain; linkers in the order of their positions; H or OH if unused. Positions of bridges follow the written chain, without caps; N, C: chain ends. Non-standard residues stand in square brackets, D forms with d. Residues, ends and D or L forms follow the SMILES beside them. X1 = O=C(CC1(S[*:2])CCCCC1)[*:1]; Cha = N[C@@H](CC1CCCCC1)C(=O)O; Nva = CCC[C@H](N)C(=O)O; Abu = CC[C@H](N)C(=O)O

System: antidiuretic response to arginine vasopressin (ADH)
Assay: Anti-antidiuretic: antagonism of the antidiuretic response to subsequent injections of vasopressin
Format: in vivo, rats
Method: Activity as antidiuretic agonists was determined by intravenous injection of the compounds being evaluated in ethanol-anesthesized water-loaded rats in accordance with Sawyer, Endocrinology, vol. 63 (1958) at 694. Antagonism of the response to subsequent injections of vasopressin was tested as described by Sawyer et al., Science, vol. 212 (1981) at 49.
Antagonistic potencies were determined and expressed as "effective doses" and pA2 values. The "effective dose" is defined as the dose (in nanomoles per kilogram) that reduces the response seen from 2x units of agonist injected 20 min after the dose of antagonist to the response with 1x units of agonist. Estimated in vivo "pA2 " values represent the negative logarithms of the effective doses, divided by the estimated volume of distribution (67 ml/kg).

[1] = Table 2, estimated in vivo pA2, volume of distribution 67 ml/kg

SMILES	Anti-Antidiuretic pA2 [1]	also measured
N=C(N)NCCC[C@H](NC(=O)[C@@H]1CCCN1C(=O)[C@@H]1CSSC2(CCCCC2)CC(=O)N[C@H](Cc2ccccc2)C(=O)N[C@@H](Cc2ccccc2)C(=O)N[C@@H](Cc2ccc(O)cc2)C(=O)N[C@@H](CC(N)=O)C(=O)N1)C(=O)NCC(N)=O [d(CH2)5 D-Phe^2 Tyr^4 AVP, [1-(β-mercapto-β,β-cyclopentamethylenepropionic acid), 2-D-phenylalanine, 4-tyrosine]-arginine vasopressin] ([dF]FYNCPRG-NH2; linker N-5 via X1)	~ 5.57	–
CC[C@@H]1NC(=O)[C@H](Cc2ccccc2)NC(=O)[C@@H]([C@H](C)CC)NC(=O)CC2(CCCCC2)SSC[C@@H](C(=O)N2CCC[C@H]2C(=O)N[C@@H](CCCNC(=N)N)C(=O)NCC(N)=O)NC(=O)[C@H](CC(N)=O)NC1=O [d(CH2)5 D-Ile^2 Abu^4 AVP, [1-(β-mercapto-β,β-cyclopentamethylenepropionic acid), 2-D-isoleucine, 4-α-aminobutyric acid]-arginine vasopressin] ([dI]F[Abu]NCPRG-NH2; linker N-5 via X1)	8.22	–
CC(C)[C@@H]1NC(=O)[C@H](Cc2ccccc2)NC(=O)[C@@H](Cc2ccc(O)cc2)NC(=O)CC2(CCCCC2)SSC[C@@H](C(=O)N2CCC[C@H]2C(=O)N[C@@H](CCCNC(=N)N)C(=O)NCC(N)=O)NC(=O)[C@H](CC(N)=O)NC1=O [d(CH2)5 --D-TyrVAVP, [1-(β-mercapto-β,β-cyclopentamethylenepropionic acid), 2-D-tyrosine, 4-valine]-arginine vasopressin] ([dY]FVNCPRG-NH2; linker N-5 via X1)	–	Anti-Antidiuretic pA2 (Table 1, estimated in vivo pA2, volume of distribution 67 ml/kg): 7.51 ± 0.08
N=C(N)NCCC[C@H](NC(=O)[C@@H]1CCCN1C(=O)[C@@H]1CSSC2(CCCCC2)CC(=O)N[C@H](Cc2ccccc2)C(=O)N[C@@H](Cc2ccccc2)C(=O)N[C@@H](CC2CCCCC2)C(=O)N[C@@H](CC(N)=O)C(=O)N1)C(=O)NCC(N)=O [d(CH2)5 D-Phe^2 Cha^4 AVP, [1-(β-mercapto-β,β-cyclopentamethylenepropionic acid), 2-D-phenylalanine, 4-cyclohexylalanine]-arginine vasopressin] ([dF]F[Cha]NCPRG-NH2; linker N-5 via X1)	7.19	–
N=C(N)NCCC[C@H](NC(=O)[C@@H]1CCCN1C(=O)[C@@H]1CSSC2(CCCCC2)CC(=O)N[C@H](Cc2ccccc2)C(=O)N[C@@H](Cc2ccccc2)C(=O)N[C@@H](CCC(N)=O)C(=O)N[C@@H](CC(N)=O)C(=O)N1)C(=O)NCC(N)=O [d(CH2)5 D-Phe^2 AVP, [1-(β-mercapto-β,β-cyclopentamethylenepropionic acid), 2-D-phenylalanine]-arginine vasopressin] ([dF]FQNCPRG-NH2; linker N-5 via X1)	7.21	–
C[C@@H](O)[C@@H]1NC(=O)[C@H](Cc2ccccc2)NC(=O)[C@@H](Cc2ccccc2)NC(=O)CC2(CCCCC2)SSC[C@@H](C(=O)N2CCC[C@H]2C(=O)N[C@@H](CCCNC(=N)N)C(=O)NCC(N)=O)NC(=O)[C@H](CC(N)=O)NC1=O [d(CH2)5 D-Phe^2 Thr^4 AVP, [1-(β-mercapto-β,β-cyclopentamethylenepropionic acid), 2-D-phenylalanine, 4-threonine]-arginine vasopressin] ([dF]FTNCPRG-NH2; linker N-5 via X1)	7.62	–
CCOc1ccc(C[C@H]2NC(=O)CC3(CCCCC3)SSC[C@@H](C(=O)N3CCC[C@H]3C(=O)N[C@@H](CCCCN)C(=O)NCC(N)=O)NC(=O)[C@H](CC(N)=O)NC(=O)[C@H](C(C)C)NC(=O)[C@H](Cc3ccccc3)NC2=O)cc1 [d(CH2)5 D-Tyr(Et)^2 Val^4 Lys^8 VP] ([dY](Et)FVNCPKG-NH2; linker N-5 via X1)	–	Anti-Antidiuretic pA2 (rat, in vivo): 7.72
CC[C@H](C)[C@@H]1NC(=O)[C@H](Cc2ccccc2)NC(=O)[C@@H](Cc2ccccc2)NC(=O)CC2(CCCCC2)SSC[C@@H](C(=O)N2CCC[C@H]2C(=O)N[C@@H](CCCNC(=N)N)C(=O)NCC(N)=O)NC(=O)[C@H](CC(N)=O)NC1=O [d(CH2)5 D-Phe^2 Ile^4 AVP, [1-(β-mercapto-β,β-cyclopentamethylenepropionic acid), 2-D-phenylalanine, 4-isoleucine]-arginine vasopressin] ([dF]FINCPRG-NH2; linker N-5 via X1)	8.24	–
CC[C@@H](C)[C@H]1NC(=O)CC2(CCCCC2)SSC[C@@H](C(=O)N2CCC[C@H]2C(=O)N[C@@H](CCCNC(=N)N)C(=O)NCC(N)=O)NC(=O)[C@H](CC(N)=O)NC(=O)[C@H](C(C)C)NC(=O)[C@H](Cc2ccccc2)NC1=O [d(CH2)5 D-Ile^2 VAVP, [1-(β-mercapto-β,β-cyclopentamethylenepropionic acid), 2-D-isoleucine, 4-valine]-arginine vasopressin] ([dI]FVNCPRG-NH2; linker N-5 via X1)	7.98	–
CCC[C@@H]1NC(=O)[C@H](Cc2ccccc2)NC(=O)[C@@H](Cc2ccccc2)NC(=O)CC2(CCCCC2)SSC[C@@H](C(=O)N2CCC[C@H]2C(=O)N[C@@H](CCCNC(=N)N)C(=O)NCC(N)=O)NC(=O)[C@H](CC(N)=O)NC1=O [d(CH2)5 D-Phe^2 Nva^4 AVP, [1-(β-mercapto-β,β-cyclopentamethylenepropionic acid), 2-D-phenylalanine, 4-norvaline]-arginine vasopressin] ([dF]F[Nva]NCPRG-NH2; linker N-5 via X1)	6.99	–
C[C@@H]1NC(=O)[C@H](Cc2ccccc2)NC(=O)[C@@H](Cc2ccccc2)NC(=O)CC2(CCCCC2)SSC[C@@H](C(=O)N2CCC[C@H]2C(=O)N[C@@H](CCCNC(=N)N)C(=O)NCC(N)=O)NC(=O)[C@H](CC(N)=O)NC1=O [d(CH2)5 D-Phe^2 Ala^4 AVP, [1-(β-mercapto-β,β-cyclopentamethylenepropionic acid), 2-D-phenylalanine, 4-alanine]-arginine vasopressin] ([dF]FANCPRG-NH2; linker N-5 via X1)	7.52	–
N=C(N)NCCC[C@H](NC(=O)[C@@H]1CCCN1C(=O)[C@@H]1CSSC2(CCCCC2)CC(=O)N[C@H](Cc2ccccc2)C(=O)N[C@@H](Cc2ccccc2)C(=O)NCC(=O)N[C@@H](CC(N)=O)C(=O)N1)C(=O)NCC(N)=O [d(CH2)5 D-Phe^2 Gly^4 AVP, [1-(β-mercapto-β,β-cyclopentamethylenepropionic acid), 2-D-phenylalanine, 4-glycine]-arginine vasopressin] ([dF]FGNCPRG-NH2; linker N-5 via X1)	5.85	–
CC[C@@H](C)[C@H]1NC(=O)CC2(CCCCC2)SSC[C@@H](C(=O)N2CCC[C@H]2C(=O)N[C@@H](CCCNC(=N)N)C(=O)NCC(N)=O)NC(=O)[C@H](CC(N)=O)NC(=O)[C@H](CC(C)C)NC(=O)[C@H](Cc2ccccc2)NC1=O [d(CH2)5 D-Ile^2 Leu^4 AVP, [1-(β-mercapto-β,β-cyclopentamethylenepropionic acid), 2-D-isoleucine, 4-leucine]-arginine vasopressin] ([dI]FLNCPRG-NH2; linker N-5 via X1)	6.80	–
